According to patent US20210253575A1, “PYRROLIDINE AMINE COMPOUNDS FOR THE TREATMENT OF AUTOIMMUNE DISEASE” (Hoffmann-La Roche Inc., priority 2018, published 2021):

Target: T1, human TLR8 (Homo sapiens, UniProt Q9NR97)
T1 sequence (Q9NR97 27-1041): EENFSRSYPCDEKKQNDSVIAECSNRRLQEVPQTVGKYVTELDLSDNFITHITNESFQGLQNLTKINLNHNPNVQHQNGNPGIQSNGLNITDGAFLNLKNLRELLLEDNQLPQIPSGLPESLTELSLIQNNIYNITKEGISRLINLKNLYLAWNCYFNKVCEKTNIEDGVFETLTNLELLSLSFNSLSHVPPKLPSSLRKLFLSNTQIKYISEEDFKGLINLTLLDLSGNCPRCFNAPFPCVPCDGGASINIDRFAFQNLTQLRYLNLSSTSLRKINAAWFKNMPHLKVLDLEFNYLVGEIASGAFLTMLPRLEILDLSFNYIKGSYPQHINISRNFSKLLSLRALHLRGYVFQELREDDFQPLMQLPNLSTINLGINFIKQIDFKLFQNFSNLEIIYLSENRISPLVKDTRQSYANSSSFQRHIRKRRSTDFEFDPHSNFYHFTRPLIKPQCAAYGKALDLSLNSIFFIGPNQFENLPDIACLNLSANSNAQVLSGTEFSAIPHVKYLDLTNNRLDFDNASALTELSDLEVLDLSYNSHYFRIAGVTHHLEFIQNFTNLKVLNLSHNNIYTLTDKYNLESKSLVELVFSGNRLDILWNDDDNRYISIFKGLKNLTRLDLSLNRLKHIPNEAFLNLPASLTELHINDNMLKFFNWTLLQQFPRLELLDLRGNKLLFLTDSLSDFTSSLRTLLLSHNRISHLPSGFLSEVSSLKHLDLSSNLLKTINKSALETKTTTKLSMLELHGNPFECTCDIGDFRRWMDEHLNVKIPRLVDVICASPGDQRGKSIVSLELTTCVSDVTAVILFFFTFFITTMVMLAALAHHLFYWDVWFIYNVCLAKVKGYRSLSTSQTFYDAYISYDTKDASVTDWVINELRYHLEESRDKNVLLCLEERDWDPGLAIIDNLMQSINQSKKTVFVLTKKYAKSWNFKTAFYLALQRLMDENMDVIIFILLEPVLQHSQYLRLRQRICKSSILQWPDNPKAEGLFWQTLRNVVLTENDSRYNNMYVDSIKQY
Assay: HEK293-Blue-hTLR-8 cells assay (SEAP reporter, R848 stimulation)
Assay type: cell-based
Conditions: HEK293-Blue-hTLR8 cells, R848 ligand, 20 hrs incubation
Experimental: The following tests were carried out in order to determine the activity of the compounds of formula (I) in HEK293-Blue-hTLR-7/8/9 cells assay.
HEK293-Blue-hTLR-8 Cells Assay:
A stable HEK293-Blue-hTLR-8 cell line was purchased from InvivoGen (Cat. #: hkb-htlr8, San Diego, Calif., USA). These cells were originally designed for studying the stimulation of human TLR8 by monitoring the activation of NF-κB. A SEAP (secreted embryonic alkaline phosphatase) reporter gene was placed under the control of the IFN-β minimal promoter fused to five NF-κB and AP-1-binding sites. The SEAP was induced by activating NF-κB and AP-1 via stimulating HEK-Blue hTLR8 cells with TLR8 ligands. Therefore the reporter expression was declined by TLR8 antagonist under the stimulation of a ligand, such as R848, for incubation of 20 hrs. The cell culture supernatant SEAP reporter activity was determined using QUANTI-Blue™ kit (Cat. #: rep-qb1, Invivogen, San Diego, Ca, USA) at a wavelength of 640 nm, a detection medium that turns purple or blue in the presence of alkaline phosphatase.
HEK293-Blue-hTLR8 cells were incubated at a density of 250,000˜450,000 cells/mL in a volume of 170 μL in a 96-well plate in Dulbecco's Modified Eagle's medium (DMEM) containing 4.5 g/L glucose, 50 U/mL penicillin, […], […], 2 mM L-glutamine, 10% (v/v) heat-inactivated fetal bovine serum with addition of 20 μL test compound in a serial dilution in the presence of final DMSO at 1% and 10 μL of 60 uM R848 in above DMEM, perform incubation under 37° C. in a CO2 incubator for 20 hrs. Then 20 μL of the supernatant from each well was incubated with 180 μL Quanti-blue substrate solution at 37° C. for 2 hrs and the absorbance was read at 620-655 nm using a spectrophotometer. The signalling pathway that TLR8 activation leads to downstream NF-κB activation has been widely accepted, and therefore similar reporter assay was modified for evaluating TLR8 antagonist.

Row | Compound | IC50 [nM]
1 | CC[C@@H]1CN(c2ccc(C#N)c3ncccc23)C[C@H]1CN1CCC2(CCNCC2)CC1 (relative stereo) [Example 15, 5-[Trans-3-(3,9-diazaspiro[5.5]undecan-3-ylmethyl)-4-ethyl-pyrrolidin-1-yl]quinoline-8-carbonitrile] | 190
2 | FC(F)(F)c1ccc(N2C[C@@H](CN3CCC4(CCNC4)C3)[C@H](C(F)(F)F)C2)c2nccnc12 (relative stereo) [Example 19, 5-[Trans-3-(2,7-diazaspiro[4.4]nonan-2-ylmethyl)-4-(trifluoromethyl)pyrrolidin-1-yl]-8-(trifluoromethyl)quinoxaline] | 253
3 | C[C@@H]1CN(c2ccc(C(F)(F)F)c3nccnc23)C[C@H]1CN1CCC2(CCNCC2)CC1 (relative stereo) [Example 21, 3-[[Trans-4-methyl-1-[8-(trifluoromethyl)quinoxalin-5-yl]pyrrolidin-3-yl]methyl]-3,9-diazaspiro[5.5]undecane] | 351
4 | N#Cc1ccc(N2C[C@@H](CN3CCC4(CCNCC4)CC3)[C@H](C(F)F)C2)c2cccnc12 (relative stereo) [Example 27, 5-[Trans-3-(3,9-diazaspiro[5.5]undecan-3-ylmethyl)-4-(difluoromethyl)pyrrolidin-1-yl]quinoline-8-carbonitrile] | 454
5 | N#Cc1ccc(N2C[C@@H](CN3CCC4(CCNCC4)CC3)[C@H](C3CC3)C2)c2cccnc12 (relative stereo) [Example 28, 5-[Trans-3-cyclopropyl-4-(3,9-diazaspiro[5.5]undecan-3-ylmethyl)pyrrolidin-1-yl]quinoline-8-carbonitrile] | 948
6 | CC[C@@H]1CN(c2ccc(C#N)c3ncccc23)C[C@H]1CN1CCC2(CCNC2)C1 (relative stereo) [Example 29, 5-[Trans-3-(2,7-diazaspiro[4.4]nonan-2-ylmethyl)-4-ethyl-pyrrolidin-1-yl]quinoline-8-carbonitrile] | 197
7 | C[C@@H]1CN(c2ccc(C(F)(F)F)c3nccnc23)C[C@H]1CN1CCC(N2CCCCC2)CC1 (relative stereo) [Example 33, 5-[Trans-3-methyl-4-[[4-(1-piperidyl)-1-piperidyl]methyl]pyrrolidin-1-yl]-8-(trifluoromethyl)quinoxaline] | 245
8 | N#Cc1ccc(N2C[C@@H](CN3CCC4(CCNC4)C3)[C@H](C(F)F)C2)c2cccnc12 (relative stereo) [Example 34, 5-[Trans-3-(2,7-diazaspiro[4.4]nonan-2-ylmethyl)-4-(difluoromethyl)pyrrolidin-1-yl]quinoline-8-carbonitrile] | 373
9 | CC(C)[C@@H]1CN(c2ccc(C#N)c3ncccc23)C[C@H]1CN1CCC2(CCNCC2)CC1 (relative stereo) [Example 36, 5-[Trans-3-(3,9-diazaspiro[5.5]undecan-3-ylmethyl)-4-isopropyl-pyrrolidin-1-yl]quinoline-8-carbonitrile] | 5170
10 | CC(C)[C@@H]1CN(c2ccc(C#N)c3ncccc23)C[C@H]1CN1CCC2(CCNC2)C1 (relative stereo) [Example 44, 5-[Trans-3-(2,7-diazaspiro[4.4]nonan-2-ylmethyl)-4-isopropyl-pyrrolidin-1-yl]quinoline-8-carbonitrile] | 533
11 | N#Cc1ccc(N2CC(CN3CCC(N)CC3)C3(CC3)C2)c2nccnc12 (single isomer, unassigned) [Example 68A, 8-[7-[(4-Amino-1-piperidyl)methyl]-5-azaspiro[2.4]heptan-5-yl]quinoxaline-5-carbonitrile] | 60
12 | N#Cc1ccc(N2C[C@H](CN3CCC4(CCNCC4)CC3)[C@@H](C(F)(F)F)C2)c2nccnc12 [Example 1, 8-[(3S,4R)-3-(3,9-diazaspiro[5.5]undecan-3-ylmethyl)-4-(trifluoromethyl)pyrrolidin-1-yl]quinoxaline-5-carbonitrile] | 20
13 | N#Cc1ccc(N2C[C@H](CN3CCC4(CCNCC4)CC3)[C@@H](C(F)(F)F)C2)c2cccnc12 [Example 2, 5-[(3S,4R)-3-(3,9-diazaspiro[5.5]undecan-3-ylmethyl)-4-(trifluoromethyl)pyrrolidin-1-yl]quinoline-8-carbonitrile] | 57
14 | N#Cc1ccc(N2C[C@H](CN3CCC4(CCNC4)C3)[C@@H](C(F)(F)F)C2)c2nccnc12 (stereo partly drawn) [Example 5, 8-[(3S,4R)-3-(2,7-diazaspiro[4.4]nonan-2-ylmethyl)-4-(trifluoromethyl)pyrrolidin-1-yl]quinoxaline-5-carbonitrile] | 35
15 | N#Cc1ccc(N2C[C@H](CN3CCC4(CCCNC4)C3)[C@@H](C(F)(F)F)C2)c2cccnc12 (stereo partly drawn) [Example 6, 5-[(3S,7R)-3-(2,9-diazaspiro[4.5]decan-2-ylmethyl)-4-(trifluoromethyl)pyrrolidin-1-yl]quinoline-8-carbonitrile] | 39
16 | CC1(N)CCN(CC2CN(c3ccc(C#N)c4nccnc34)CC23CC3)CC1 (centres unmarked) [Example 7, 8-[7-[(4-Amino-4-methyl-1-piperidyl)methyl]-5-azaspiro[2.4]heptan-5-yl]quinoxaline-5-carbonitrile] | 43
17 | N#Cc1ccc(N2C[C@H](CN3CC4(CCCNC4)C3)[C@@H](C(F)(F)F)C2)c2cccnc12 [Example 8, 5-[(3S,7R)-3-(2,8-diazaspiro[3.5]nonan-2-ylmethyl)-4-(trifluoromethyl)pyrrolidin-1-yl]quinoline-8-carbonitrile] | 55
18 | N#Cc1ccc(N2C[C@H](CN3CCC4(CCNC4)C3)[C@@H](C(F)(F)F)C2)c2cccnc12 (stereo partly drawn) [Example 9, 5-[(3S,4R)-3-(2,7-diazaspiro[4.4]nonan-2-ylmethyl)-4-(trifluoromethyl)pyrrolidin-1-yl]quinoline-8-carbonitrile] | 47
19 | N#Cc1ccc(N2C[C@H](CN3CCC(N4CCCCC4)CC3)[C@@H](C(F)(F)F)C2)c2cccnc12 [Example 10, 5-[(3S,4R)-3-[[4-(1-piperidyl)-1-piperidyl]methyl]-4-(trifluoromethyl)pyrrolidin-1-yl]quinoline-8-carbonitrile] | 52
20 | N#Cc1ccc(N2CC(CN3CCC(N4CCCCC4)CC3)C3(CC3)C2)c2nccnc12 (centres unmarked) [Example 11, 8-[7-[[4-(1-Piperidyl)-1-piperidyl]methyl]-5-azaspiro[2.4]heptan-5-yl]quinoxaline-5-carbonitrile] | 24
21 | CC1(N)CCN(C[C@H]2CN(c3ccc(C#N)c4nccnc34)C[C@@H]2C(F)(F)F)CC1 [Example 12, 8-[(3S,4R)-3-[(4-amino-4-methyl-1-piperidyl)methyl]-4-(trifluoromethyl)pyrrolidin-1-yl]quinoxaline-5-carbonitrile] | 31
22 | N#Cc1ccc(N2CC(CN3CCC4(CCCNC4)CC3)C3(CC3)C2)c2nccnc12 (centres unmarked) [Example 13, 8-[7-(2,9-Diazaspiro[5.5]undecan-9-ylmethyl)-5-azaspiro[2.4]heptan-5-yl]quinoxaline-5-carbonitrile] | 50
23 | N#Cc1ccc(N2C[C@H](CN3CCC4(CCNC4)CC3)[C@@H](C(F)(F)F)C2)c2nccnc12 [Example 14, 8-[(3S,4R)-3-(2,8-Diazaspiro[4.5]decan-8-ylmethyl)-4-(trifluoromethyl)pyrrolidin-1-yl]quinoxaline-5-carbonitrile] | 19
